Reference: ChEMBL document CHEMBL3885881, “DrugMatrix”

Organism: Rattus norvegicus
Assay: DrugMatrix - Regimen: Daily Repeat
Assay type: toxicity, organism-based, Sprague-Dawley
Set-up: regimen Daily Repeat, gender Male, age 6-8 weeks
Details: in vivo, po, route oral GAVAGE, […]; for URIC ACID / ALANINE AMINOTRANSFERASE / ALBUMIN / ALKALINE PHOSPHATASE / ASPARTATE AMINOTRANSFERASE / BLOOD UREA NITROGEN / CARBON DIOXIDE / CHLORIDE / CHOLESTEROL / CREATINE PHOSPHOKINASE / CREATININE / GLUCOSE / LACTATE DEHYDROGENASE / LIPASE / PHOSPHORUS / POTASSIUM / SODIUM / TOTAL BILIRUBIN / TOTAL PROTEIN: tissue Plasma
[1] = 1 mg/kg, 120 h, tissue Blood, dose level Low, time 5 day
[2] = 1 mg/kg, 120 h, dose level Low, time 5 day
[3] = 2.75 mg/kg, 72 h, tissue Blood, dose level High, time 3 day
[4] = 2.75 mg/kg, 72 h, dose level High, time 3 day
[5] = 2.75 mg/kg, 120 h, tissue Blood, dose level High, time 5 day
[6] = 2.75 mg/kg, 120 h, dose level High, time 5 day

SMILES: C[C@H]1O[C@@H](O[C@H]2[C@@H](O)C[C@H](O[C@H]3[C@@H](O)C[C@H](O[C@H]4CC[C@@]5(C)[C@H](CC[C@@H]6[C@@H]5CC[C@]5(C)[C@@H](C7=CC(=O)OC7)CC[C@]65O)C4)O[C@@H]3C)O[C@@H]2C)C[C@H](O)[C@@H]1O [DIGITOXIN]
- URIC ACID (1 mg/kg, 72 h, dose level Low, time 3 day): 0.53 mg/dL
- ABSOLUTE BASOPHIL [1]: 0 CELLS/uL
- ABSOLUTE EOSINOPHIL [1]: 0 CELLS/uL
- ABSOLUTE LYMPHOCYTE [1]: 9184 CELLS/uL
- ABSOLUTE MONOCYTE [1]: 19 CELLS/uL
- ABSOLUTE SEGMENTED NEUTROPHIL [1]: 697 CELLS/uL
- BASOPHIL [1]: 0%
- EOSINOPHIL [1]: 0%
- ERYTHROCYTE COUNT [1]: 5.65 x10E6/uL
- HEMATOCRIT [1]: 35.27%
- HEMOGLOBIN [1]: 13.63 G/DL
- LEUKOCYTE COUNT [1]: 9.9 x10E3/uL
- LYMPHOCYTE [1]: 93%
- MEAN CORPUSCULAR HEMOGLOBIN [1]: 24.2 pg
- MEAN CORPUSCULAR HEMOGLOBIN CONCENTRATION [1]: 38.7 G/DL
- MEAN CORPUSCULAR VOLUME [1]: 62.47 fL
- MONOCYTE [1]: 0.33%
- NEUTROPHIL [1]: 6.67%
- NUCLEATED RED BLOOD CELLS [1]: 0 /100WBC
- PLATELET COUNT [1]: 833 x10E3/uL
- ALANINE AMINOTRANSFERASE [2]: 84.33 u/L
- ALBUMIN [2]: 4.1 G/DL
- ALKALINE PHOSPHATASE [2]: 531.67 u/L
- ASPARTATE AMINOTRANSFERASE [2]: 83 u/L
- BLOOD UREA NITROGEN [2]: 10.67 mg/dL
- CARBON DIOXIDE [2]: 34.67 mmol/L
- CHLORIDE [2]: 98.33 MEQ/L
- CHOLESTEROL [2]: 76.67 mg/dL
- CREATINE PHOSPHOKINASE [2]: 231.33 u/L
- CREATININE [2]: 0.16 mg/dL
- GLUCOSE [2]: 154 mg/dL
- LACTATE DEHYDROGENASE [2]: 122.67 u/L
- LIPASE [2]: 10 u/L
- PHOSPHORUS [2]: 10.13 mg/dL
- POTASSIUM [2]: 5.23 MEQ/L
- SODIUM [2]: 142.43 MEQ/L
- TOTAL BILIRUBIN [2]: 0.23 mg/dL
- TOTAL PROTEIN [2]: 5.83 G/DL
- URIC ACID [2]: 0.43 mg/dL
- ABSOLUTE BASOPHIL [3]: 0 CELLS/uL
- ABSOLUTE EOSINOPHIL [3]: 0 CELLS/uL
- ABSOLUTE LYMPHOCYTE [3]: 10747 CELLS/uL
- ABSOLUTE MONOCYTE [3]: 27.33 CELLS/uL
- ABSOLUTE SEGMENTED NEUTROPHIL [3]: 592.33 CELLS/uL
- BASOPHIL [3]: 0%
- EOSINOPHIL [3]: 0%
- ERYTHROCYTE COUNT [3]: 5.51 x10E6/uL
- HEMATOCRIT [3]: 33.6%
- HEMOGLOBIN [3]: 13.4 G/DL
- LEUKOCYTE COUNT [3]: 11.37 x10E3/uL
- LYMPHOCYTE [3]: 94.33%
- MEAN CORPUSCULAR HEMOGLOBIN [3]: 24.33 pg
- MEAN CORPUSCULAR VOLUME [3]: 61.03 fL
- MONOCYTE [3]: 0.33%
- NEUTROPHIL [3]: 5.33%
- NUCLEATED RED BLOOD CELLS [3]: 0 /100WBC
- PLATELET COUNT [3]: 448 x10E3/uL
- ALANINE AMINOTRANSFERASE [4]: 73 u/L
- ALBUMIN [4]: 3.8 G/DL
- ALKALINE PHOSPHATASE [4]: 350.67 u/L
- ASPARTATE AMINOTRANSFERASE [4]: 101.33 u/L
- BLOOD UREA NITROGEN [4]: 11.67 mg/dL
- CARBON DIOXIDE [4]: 23.33 mmol/L
- CHLORIDE [4]: 96 MEQ/L
- CHOLESTEROL [4]: 61.33 mg/dL
- CREATINE PHOSPHOKINASE [4]: 274.33 u/L
- CREATININE [4]: 0.13 mg/dL
- GLUCOSE [4]: 147.33 mg/dL
- LACTATE DEHYDROGENASE [4]: 153 u/L
- LIPASE [4]: 10.67 u/L
- PHOSPHORUS [4]: 9.03 mg/dL
- POTASSIUM [4]: 5.47 MEQ/L
- SODIUM [4]: 137.1 MEQ/L
- TOTAL BILIRUBIN [4]: 0.2 mg/dL
- TOTAL PROTEIN [4]: 5.33 G/DL
- URIC ACID [4]: 0.67 mg/dL
- ABSOLUTE BASOPHIL [5]: 0 CELLS/uL
- ABSOLUTE EOSINOPHIL [5]: 0 CELLS/uL
- ABSOLUTE LYMPHOCYTE [5]: 7671 CELLS/uL
- ABSOLUTE MONOCYTE [5]: 21 CELLS/uL
- ABSOLUTE SEGMENTED NEUTROPHIL [5]: 641.33 CELLS/uL
- BASOPHIL [5]: 0%
- EOSINOPHIL [5]: 0%
- ERYTHROCYTE COUNT [5]: 5.28 x10E6/uL
- HEMATOCRIT [5]: 33.33%
- HEMOGLOBIN [5]: 12.97 G/DL
- LEUKOCYTE COUNT [5]: 8.33 x10E3/uL
- LYMPHOCYTE [5]: 92%
- MEAN CORPUSCULAR HEMOGLOBIN [5]: 24.53 pg
- MEAN CORPUSCULAR VOLUME [5]: 63 fL
- MONOCYTE [5]: 0.33%
- NEUTROPHIL [5]: 7.67%
- NUCLEATED RED BLOOD CELLS [5]: 0.33 /100WBC
- PLATELET COUNT [5]: 1052.33 x10E3/uL
- ALANINE AMINOTRANSFERASE [6]: 67.67 u/L
- ALBUMIN [6]: 4.03 G/DL
- ALKALINE PHOSPHATASE [6]: 389.33 u/L
- ASPARTATE AMINOTRANSFERASE [6]: 88.67 u/L
- BLOOD UREA NITROGEN [6]: 14.67 mg/dL
- CARBON DIOXIDE [6]: 35 mmol/L
- CHLORIDE [6]: 99.67 MEQ/L
- CHOLESTEROL [6]: 57.33 mg/dL
- CREATINE PHOSPHOKINASE [6]: 199.67 u/L
- CREATININE [6]: 0.15 mg/dL
- GLUCOSE [6]: 156.67 mg/dL
- LACTATE DEHYDROGENASE [6]: 157.67 u/L
- LIPASE [6]: 9.67 u/L
- PHOSPHORUS [6]: 10.33 mg/dL
- POTASSIUM [6]: 5.37 MEQ/L
- SODIUM [6]: 144.23 MEQ/L
- TOTAL BILIRUBIN [6]: 0.17 mg/dL
- TOTAL PROTEIN [6]: 5.67 G/DL
- URIC ACID [6]: 0.5 mg/dL
